Measurements reported in US20090017010A1, “NOVEL ARTEMIS/DNA-DEPENDENT PROTEIN KINASE COMPLEX AND METHODS OF USE THEREOF” (University of Southern California, priority 2002, published 2009).
Blank lines part the entries; values can stand above or below the molecule they belong to.

Tests used:
Artemis:DNA-PKcs complex = target: T1, Artemis:DNA-PKcs complex (Homo sapiens, UniProt P78527); test: In vitro nuclease assay: effect of a DNA-PKcs inhibitor and of ATP analogs on hairpin opening; format: biochemical; conditions: for effect of DNA-PKcs (conferring hairpin opening activity on Artemis) when analog is used instead of ATP: 1 mM ATP analog, DFL16.1 hairpin, FIG. 5B lanes 5, 6
T1 construct: Native DNA-PKcs was purified as described (Chan et al., 1996) except that HeLa cells were used as the source; made in house; host or cells: Artemis-myc-His: transfected 293T cells (Ni-NTA, then anti-myc immunobeads); DNA-PKcs: endogenous protein purified from HeLa cells
T1 sequence (P78527 whole entry): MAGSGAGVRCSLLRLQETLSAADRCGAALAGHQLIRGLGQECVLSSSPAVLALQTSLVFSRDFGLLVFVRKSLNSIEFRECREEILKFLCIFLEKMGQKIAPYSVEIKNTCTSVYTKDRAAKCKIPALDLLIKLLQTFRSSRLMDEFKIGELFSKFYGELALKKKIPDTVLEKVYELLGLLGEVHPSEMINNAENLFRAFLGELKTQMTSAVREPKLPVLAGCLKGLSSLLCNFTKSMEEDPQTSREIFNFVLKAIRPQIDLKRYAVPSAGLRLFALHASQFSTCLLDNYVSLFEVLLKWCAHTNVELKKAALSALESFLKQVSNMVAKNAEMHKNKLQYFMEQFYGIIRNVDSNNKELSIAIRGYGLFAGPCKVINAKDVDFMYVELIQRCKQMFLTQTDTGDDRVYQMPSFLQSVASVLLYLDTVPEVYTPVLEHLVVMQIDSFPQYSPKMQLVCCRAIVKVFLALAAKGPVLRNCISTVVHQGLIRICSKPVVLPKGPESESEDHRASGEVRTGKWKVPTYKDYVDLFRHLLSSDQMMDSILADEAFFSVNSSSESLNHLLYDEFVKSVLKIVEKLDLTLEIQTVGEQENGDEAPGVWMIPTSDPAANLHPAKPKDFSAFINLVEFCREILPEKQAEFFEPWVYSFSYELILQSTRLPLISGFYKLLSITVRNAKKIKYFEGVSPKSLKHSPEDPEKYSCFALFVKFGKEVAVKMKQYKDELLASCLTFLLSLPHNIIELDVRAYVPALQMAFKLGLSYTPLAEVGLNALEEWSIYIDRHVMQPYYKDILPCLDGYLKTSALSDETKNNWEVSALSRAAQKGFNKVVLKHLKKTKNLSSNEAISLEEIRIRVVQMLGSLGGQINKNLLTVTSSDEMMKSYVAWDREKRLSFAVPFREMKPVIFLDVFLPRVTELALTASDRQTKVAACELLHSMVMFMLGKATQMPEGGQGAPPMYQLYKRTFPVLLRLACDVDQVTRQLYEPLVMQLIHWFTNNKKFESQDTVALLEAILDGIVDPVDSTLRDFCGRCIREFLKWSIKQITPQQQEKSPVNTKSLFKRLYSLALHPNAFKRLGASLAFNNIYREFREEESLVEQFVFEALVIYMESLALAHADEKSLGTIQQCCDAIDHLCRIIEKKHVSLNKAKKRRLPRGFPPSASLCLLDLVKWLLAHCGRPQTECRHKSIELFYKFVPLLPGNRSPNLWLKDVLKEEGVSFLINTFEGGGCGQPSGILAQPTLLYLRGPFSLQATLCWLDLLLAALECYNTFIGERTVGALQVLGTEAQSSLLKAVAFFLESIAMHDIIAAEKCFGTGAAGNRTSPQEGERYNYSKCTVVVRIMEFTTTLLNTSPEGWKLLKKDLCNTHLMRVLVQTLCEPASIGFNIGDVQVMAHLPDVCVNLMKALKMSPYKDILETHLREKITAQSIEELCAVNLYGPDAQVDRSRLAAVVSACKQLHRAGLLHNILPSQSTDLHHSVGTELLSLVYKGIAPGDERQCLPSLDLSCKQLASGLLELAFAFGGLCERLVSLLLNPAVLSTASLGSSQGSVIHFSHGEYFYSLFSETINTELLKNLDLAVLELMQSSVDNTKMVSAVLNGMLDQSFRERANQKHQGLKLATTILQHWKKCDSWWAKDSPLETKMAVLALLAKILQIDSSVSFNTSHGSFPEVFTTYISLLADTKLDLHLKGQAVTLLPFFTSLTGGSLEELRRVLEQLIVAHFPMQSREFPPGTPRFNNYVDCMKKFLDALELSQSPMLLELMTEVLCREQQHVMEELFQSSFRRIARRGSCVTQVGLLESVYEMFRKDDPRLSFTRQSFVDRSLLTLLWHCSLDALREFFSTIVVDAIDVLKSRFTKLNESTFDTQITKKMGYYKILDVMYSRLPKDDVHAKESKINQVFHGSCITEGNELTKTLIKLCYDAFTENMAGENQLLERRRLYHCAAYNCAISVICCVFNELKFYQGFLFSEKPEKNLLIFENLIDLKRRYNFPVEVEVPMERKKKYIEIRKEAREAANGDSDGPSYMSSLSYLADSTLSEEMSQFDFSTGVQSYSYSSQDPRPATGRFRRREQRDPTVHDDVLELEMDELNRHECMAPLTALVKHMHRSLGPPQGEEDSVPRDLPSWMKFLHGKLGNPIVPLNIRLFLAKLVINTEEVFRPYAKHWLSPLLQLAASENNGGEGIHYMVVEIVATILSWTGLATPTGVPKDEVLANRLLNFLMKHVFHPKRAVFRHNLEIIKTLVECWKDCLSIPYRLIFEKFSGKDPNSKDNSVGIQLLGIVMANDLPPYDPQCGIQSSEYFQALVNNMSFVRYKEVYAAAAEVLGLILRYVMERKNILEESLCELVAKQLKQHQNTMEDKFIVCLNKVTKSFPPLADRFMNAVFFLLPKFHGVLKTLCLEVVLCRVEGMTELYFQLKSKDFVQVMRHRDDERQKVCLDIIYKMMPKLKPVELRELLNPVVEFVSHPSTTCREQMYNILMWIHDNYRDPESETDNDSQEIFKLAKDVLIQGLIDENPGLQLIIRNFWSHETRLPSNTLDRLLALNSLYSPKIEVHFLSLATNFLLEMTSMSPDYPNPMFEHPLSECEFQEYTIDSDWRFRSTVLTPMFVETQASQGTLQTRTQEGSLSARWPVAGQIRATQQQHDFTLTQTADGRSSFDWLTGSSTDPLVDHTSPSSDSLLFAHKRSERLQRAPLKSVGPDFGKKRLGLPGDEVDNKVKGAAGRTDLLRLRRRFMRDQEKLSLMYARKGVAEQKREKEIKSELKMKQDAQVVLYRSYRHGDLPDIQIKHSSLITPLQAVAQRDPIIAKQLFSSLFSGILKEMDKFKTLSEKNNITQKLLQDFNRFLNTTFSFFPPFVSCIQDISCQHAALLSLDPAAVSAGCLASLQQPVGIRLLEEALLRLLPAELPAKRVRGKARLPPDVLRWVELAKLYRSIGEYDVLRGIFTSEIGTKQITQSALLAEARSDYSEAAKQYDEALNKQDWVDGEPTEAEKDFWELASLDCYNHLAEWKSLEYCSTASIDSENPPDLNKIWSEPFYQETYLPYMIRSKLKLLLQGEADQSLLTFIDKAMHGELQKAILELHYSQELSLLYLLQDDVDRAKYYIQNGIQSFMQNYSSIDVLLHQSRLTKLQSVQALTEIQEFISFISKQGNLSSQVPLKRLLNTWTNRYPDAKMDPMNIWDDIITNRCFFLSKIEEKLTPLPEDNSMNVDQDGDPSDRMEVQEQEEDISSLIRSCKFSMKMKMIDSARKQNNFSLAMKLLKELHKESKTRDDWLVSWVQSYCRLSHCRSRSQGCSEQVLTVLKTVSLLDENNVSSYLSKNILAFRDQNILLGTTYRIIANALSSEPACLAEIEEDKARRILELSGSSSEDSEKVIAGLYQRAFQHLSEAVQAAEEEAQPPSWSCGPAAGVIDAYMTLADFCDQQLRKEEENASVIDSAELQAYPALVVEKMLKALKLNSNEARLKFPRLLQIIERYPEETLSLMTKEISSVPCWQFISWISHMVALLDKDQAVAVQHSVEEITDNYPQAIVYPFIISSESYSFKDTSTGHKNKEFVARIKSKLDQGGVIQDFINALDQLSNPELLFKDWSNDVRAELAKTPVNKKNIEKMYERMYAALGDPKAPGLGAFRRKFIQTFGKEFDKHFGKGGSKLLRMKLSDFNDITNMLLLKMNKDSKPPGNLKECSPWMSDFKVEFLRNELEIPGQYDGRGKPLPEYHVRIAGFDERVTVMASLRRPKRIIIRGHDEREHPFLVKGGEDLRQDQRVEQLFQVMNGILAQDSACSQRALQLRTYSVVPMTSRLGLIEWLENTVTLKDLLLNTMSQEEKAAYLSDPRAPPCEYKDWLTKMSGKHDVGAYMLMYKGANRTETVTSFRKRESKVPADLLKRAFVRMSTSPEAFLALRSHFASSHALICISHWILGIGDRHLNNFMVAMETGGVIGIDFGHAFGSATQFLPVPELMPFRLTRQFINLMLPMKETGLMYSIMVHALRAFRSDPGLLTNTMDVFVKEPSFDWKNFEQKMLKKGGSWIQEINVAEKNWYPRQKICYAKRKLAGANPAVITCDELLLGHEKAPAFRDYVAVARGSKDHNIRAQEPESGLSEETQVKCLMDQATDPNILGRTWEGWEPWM
T1 sequence (Q96SD1 whole entry partner): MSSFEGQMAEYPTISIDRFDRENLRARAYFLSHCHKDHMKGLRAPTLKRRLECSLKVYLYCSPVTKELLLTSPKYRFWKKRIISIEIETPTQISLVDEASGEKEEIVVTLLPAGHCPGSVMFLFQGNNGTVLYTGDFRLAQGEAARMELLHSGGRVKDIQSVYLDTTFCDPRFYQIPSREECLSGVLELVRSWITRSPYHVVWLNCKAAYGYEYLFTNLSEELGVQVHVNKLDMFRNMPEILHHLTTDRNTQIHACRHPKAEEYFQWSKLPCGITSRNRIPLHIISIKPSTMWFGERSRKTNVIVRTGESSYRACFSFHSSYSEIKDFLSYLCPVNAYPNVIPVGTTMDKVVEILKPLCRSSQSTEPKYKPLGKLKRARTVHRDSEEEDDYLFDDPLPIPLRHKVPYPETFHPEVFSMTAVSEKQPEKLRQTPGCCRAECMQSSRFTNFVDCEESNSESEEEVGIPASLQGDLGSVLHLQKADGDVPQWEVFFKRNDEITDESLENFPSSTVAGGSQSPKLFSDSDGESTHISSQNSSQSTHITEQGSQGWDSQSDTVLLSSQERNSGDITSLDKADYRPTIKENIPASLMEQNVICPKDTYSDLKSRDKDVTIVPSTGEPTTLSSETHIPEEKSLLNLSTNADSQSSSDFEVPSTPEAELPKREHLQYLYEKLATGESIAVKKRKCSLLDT
Description: (§1) Nuclease assays without RAGs were carried out in a total volume of 10 μL with a buffer composition of 25 mM Tris, pH 8.0, 10-50 mM NaCl or KCl, 10 mM MgCl2, 1 mM DTT, and 50 ng/μL of BSA unless otherwise specified. To the buffer mixture, Artemis was added to 2.75 pmol, and DNA-PKcs and Ku were added to 1.25 pmol each. 0.25 mM of ATP (or ADP, ATP-y-S, AMP-PNP) and […] of 35 bp DNA were included where DNA-PKcs was used. Reactions were incubated at 37° C. for 30 minutes. In reactions including DNA-PKcs inhibitors, reaction mixtures without the substrate were incubated on ice for 15 minutes before the addition of the substrate and the subsequent incubation at 37° C. In FIG. 7, pre-phosphorylation of Artemis-myc-His immunobeads was carried out under DNA-PK kinase assay conditions. After washing the treated immunobeads with buffer F for three times and the nuclease assay buffer for two times, the beads were used for the nuclease reactions. In the hairpin opening of RAG-generated hairpins (FIG. 8), the reactions contained 25 mM K-HEPES, pH 7.4, 50 mM KCl, 10 mM MgCl2, 1 mM DTT, 0.25 pmol of labeled 12-RSS double-stranded oligonucleotides (KY28/KY29) and an equal amount of unlabeled 23-RSS double-stranded oligonucleotides (KY36/KY37), 1 pmol of RAGs (assuming that the RAG complex consists of two RAG-1 and two RAG-2 subunits), 2 pmol of HMG1, 2.75 pmol of Artemis-myc-His, and 1.25 pmol of DNA-PKcs (with ATP and 35 bp DNA as described above). For the sequential reactions, substrates were incubated with RAG complex alone first at 37° C. for 60 minutes, extracted with or without phenol/chloroform, then Artemis-myc-His and DNA-PKcs were added, followed by another 30-minute incubation at 37° C. Reactions with the RAG complex, Artemis, and DNA-PKcs added simultaneously were incubated for 90 minutes at the same temperature. After incubation, reactions were stopped by adding an equal volume of formamide gel loading buffer and beating at 100° C. for 5 minutes. DNA was resolved on 12% denaturing polyacrylamide gels. […] Data was analyzed by ImageQuant software (v5.0). […]

20 bp hairpin (DFL16.1) = test: In vitro nuclease assay: hairpin opening by Artemis proteins; format: biochemical
Description: as §1

dsDNA = conditions: read-out: equilibrium binding affinity for dsDNA; cited from earlier work

Molecule: Artemis: full-length human Artemis with C-terminal myc-His tag, expressed in 293T cells, used on immunobeads as the enzyme
- hairpin opening (20 bp hairpin (DFL16.1); Artemis alone, without DNA-PKcs, FIG. 5A lane 2): No hairpin opening
- hairpins opened during the time interval (20 bp hairpin (DFL16.1); with DNA-PKcs present, 37° C., 30 minutes, FIG. 5A lanes 4-6, said to be probably an underestimation): about 40%

Molecule: D165N: D165N point mutant of Artemis, same expression vector as wild type
- hairpin opening activity (20 bp hairpin (DFL16.1); in the presence of DNA-PKcs): lacks any hairpin opening activity

Molecule: DNA-PKcs: native catalytic subunit of DNA-dependent protein kinase, 469 kDa, purified from HeLa cells
- Kd (dsDNA): ~1 nM

More lines, now with the values ahead:

- endonucleolytic activity on hairpins and 5′ ends, relative to ATP (Artemis:DNA-PKcs complex; ADP instead of ATP, 20 bp artificial GC hairpin with 6-nucleotide 5′ overhang, FIG. 7 lane 3): lower level of endonucleolytic activity
Molecule: Nc1ncnc2c1ncn2[C@@H]1O[C@H](COP(=O)(O)OP(=O)(O)O)[C@@H](O)[C@H]1O [ADP]

- effect of DNA-PKcs (conferring hairpin opening activity on Artemis) when analog is used instead of ATP (Artemis:DNA-PKcs complex): largely suppressed
Molecule: Nc1ncnc2c1ncn2[C@@H]1O[C@H](COP(=O)(O)OP(=O)(O)NP(=O)(O)O)[C@@H](O)[C@H]1O [AMP-PNP]

- effect of DNA-PKcs (conferring hairpin opening activity on Artemis) when analog is used instead of ATP (Artemis:DNA-PKcs complex): largely suppressed
Molecule: Nc1ncnc2c1ncn2[C@@H]1O[C@H](COP(=O)(O)OP(=O)(O)OP(O)(O)=S)[C@@H](O)[C@H]1O [ATP-γ-S]
